Results: ChEMBL document CHEMBL3987221, “The Australian National University Dept Of Immunology Pathogen Box Compounds Screened” (2018)
Active and inactive are the calls of the source. How the calls were made is not given here.

Key:
[1] = target: T1, Ferrochelatase, mitochondrial (Homo sapiens) (UniProt P22830); settings: at 10 µM
T1 sequence (whole entry): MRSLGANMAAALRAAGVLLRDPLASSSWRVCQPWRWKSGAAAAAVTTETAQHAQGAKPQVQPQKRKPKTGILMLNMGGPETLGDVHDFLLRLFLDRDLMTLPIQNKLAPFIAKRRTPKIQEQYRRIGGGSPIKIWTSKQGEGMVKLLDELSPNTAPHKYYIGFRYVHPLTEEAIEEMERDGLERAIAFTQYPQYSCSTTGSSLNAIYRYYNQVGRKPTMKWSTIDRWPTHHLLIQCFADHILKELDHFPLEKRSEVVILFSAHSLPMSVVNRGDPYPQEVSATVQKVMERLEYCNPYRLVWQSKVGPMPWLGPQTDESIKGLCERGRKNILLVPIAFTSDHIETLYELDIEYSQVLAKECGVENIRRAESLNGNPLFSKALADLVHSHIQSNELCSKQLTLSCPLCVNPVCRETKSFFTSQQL
Description: Compound was evaluated for the inhibition of human FECH at 10uM

[2] = target: T2, Porphobilinogen deaminase (Homo sapiens) (UniProt P08397); settings: at 100 µM
T2 sequence (whole entry): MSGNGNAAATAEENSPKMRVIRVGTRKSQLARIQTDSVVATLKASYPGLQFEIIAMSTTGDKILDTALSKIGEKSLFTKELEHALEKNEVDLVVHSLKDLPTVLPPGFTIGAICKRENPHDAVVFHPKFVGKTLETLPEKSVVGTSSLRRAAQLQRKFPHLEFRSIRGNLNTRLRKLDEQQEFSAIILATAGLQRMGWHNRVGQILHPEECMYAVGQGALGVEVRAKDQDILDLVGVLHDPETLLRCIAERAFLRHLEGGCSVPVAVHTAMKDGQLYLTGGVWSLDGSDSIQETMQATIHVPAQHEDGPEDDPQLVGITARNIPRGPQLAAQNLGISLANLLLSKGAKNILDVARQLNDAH
Description: Compound was evaluated for the inhibition of human HMBS at 100uM

| Compound | inhibition [1] | inhibition [2] |
| --- | --- | --- |
| Nc1ncnc2c1ncn2[C@@H]1O[C@H](COS(=O)(=O)NC(=O)c2ccccc2O)[C@@H](O)[C@H]1O | inactive | inactive |
| FC(F)(F)c1ccc(N(c2cccnc2)C2CCN(c3ccc(C(F)(F)F)cn3)CC2)cc1 | inactive | inactive |
| Cc1cccc(Cn2ccc(NC(=O)c3ccc4c(c3)OCO4)n2)c1 | inactive | inactive |
| NCC(=O)N1CCn2c(nc(-c3ccccc3)c2Nc2ccc3c(c2)OCO3)C1 | inactive | inactive |
| CCC(NC(=O)c1ccccc1NC(=O)c1ccc(C)cc1)C(=O)OC (stereo unspecified) | inactive | inactive |
| COc1cccc(NC(=O)c2c(NC(=O)c3cccnc3)sc3c2CCC3)c1 | inactive | inactive |
| COc1ccccc1C(C)NCC(=O)Nc1cc(C(F)(F)F)ccc1Cl (stereo unspecified) | inactive | inactive |
| CCn1cnc2c(Nc3cc(F)cc(F)c3)nc(C#N)nc21 | inactive | inactive |
| CCc1c(C)nc(-n2nc(C)cc2NC(=O)c2ccccc2SC)[nH]c1=O | inactive | inactive |
| CC(C(=O)Nc1ccc2oc(-c3ccncc3)nc2c1)c1ccccc1 (stereo unspecified) | inactive | inactive |
| Cc1ccc2nc(Cl)c(CNCc3cccs3)cc2c1 | inactive | inactive |
| N#CCN(CCCCN1CCN(c2ccc(F)cc2)CC1)C(=O)OCc1ccccc1 | inactive | inactive |
| COc1ccc2nccc(NC(=O)C3CCN(CCc4ccc(Cl)cc4)CC3)c2n1 | inactive | inactive |
| O=C(Nc1ccccc1)c1ccc(-c2cc3ccncc3cc2OC2CCNCC2)s1 | inactive | inactive |
| C[C@H](C(N)=O)N1CCCC[C@H]1c1ccc(OCc2cccc(F)c2)cc1 | inactive | inactive |
| CO/N=C(\C(=O)OC)c1ccccc1CO/N=C(\C)c1cccc(C(F)(F)F)c1 | inactive | inactive |
| O=C(NC1CC1)c1ccc(N2CCC(Cc3ccccc3)CC2)nc1 | inactive | inactive |
| CCN(CC)S(=O)(=O)c1ccc(C(=O)Nc2cc(C)nn2-c2nc(C)c(C)c(=O)[nH]2)cc1 | inactive | inactive |
| CNc1nnc(Sc2cnn(-c3ccccc3)c(=O)c2Cl)s1 | inactive | inactive |
| COc1cccc(-c2nc3c(N4CCCC4)cccc3n2CC2CCCN2)n1 (stereo unspecified) | inactive | inactive |
| CC(C)(C)C(O)C(Oc1ccc(-c2ccccc2)cc1)n1cncn1 (stereo unspecified) | inactive | inactive |
| Nc1ncnc2c1c(-c1cnc3ccccc3c1)nn2CC1CCNCC1 | inactive | inactive |
| CC[C@@H]([C@H](C)O)n1ncn(-c2ccc(N3CCN(c4ccc(OC[C@@H]5CO[C@@](Cn6cncn6)(c6ccc(F)cc6F)C5)cc4)CC3)cc2)c1=O | inactive | inactive |
| O=C1N(Cc2cc3ccccc3s2)CC2CN(Cc3ccccc3)CCN12 (stereo unspecified) | inactive | inactive |
| CC(C)(C)c1ccc(N[C@@H]2CCCC[C@H]2NC(=O)c2ccco2)cc1 | inactive | inactive |
| Nc1ccc(C(=O)Nc2ccc(-c3nc4ccccc4o3)cc2)cc1 | inactive | inactive |
| CC1CS(=O)(=O)CCN1/N=C/c1ccc([N+](=O)[O-])o1 (stereo unspecified) | inactive | inactive |

| Compound | inhibition [1] | inhibition [2] |
| --- | --- | --- |
| Cc1nc(-c2ccccn2)nc(NCCc2ccc(S(C)(=O)=O)cc2)c1Cl | inactive | inactive |
| CCNC(=O)C(C)Nc1nc(-c2cccnc2)nc2sc(C)c(C)c12 (stereo unspecified) | inactive | inactive |
| COc1ccc(-c2nn(C(C)C)c3ncnc(N)c23)cc1OC | inactive | inactive |
| O=C(Nc1nnc(-c2ccc(Cl)s2)o1)c1ccc(Cl)s1 | inactive | inactive |
| CNC(=O)c1nn(C)c2c1C(C)(C)Cc1cnc(Nc3ccc(N4CCN(C)CC4)cc3)nc1-2 | inactive | inactive |
| Nc1c2c(nc3sc4c(c13)CCCC4)CCCC2 | inactive | inactive |
| O=C(NC1CCN(c2ccnc3ccccc23)C1)c1cccc(C(F)(F)F)c1 (stereo unspecified) | inactive | inactive |
| CCOc1ccc2cc(-c3nn(CC4CCN(C)CC4)c4ncnc(N)c34)ccc2c1 | inactive | inactive |
| COc1ccc(-c2cnc3cnc(-c4cccc(OC(C)C)c4)cn23)cc1 | inactive | inactive |
| CN1CCN(CCCOc2ncc(Nc3ncc(-c4ccc(C(F)(F)F)c(F)c4)nc3C(N)=O)cn2)CC1 | inactive | inactive |
| CS(=O)(=O)c1ccccc1C(=O)N(Cc1ccccc1)c1ccccc1 | inactive | inactive |
| CC(C)(C)OC(=O)N1CCC(Cn2nc(-c3cnc4ccccc4c3)c3c(N)ncnc32)CC1 | inactive | inactive |
| CC(=O)NCC1CN(c2ccc(-c3ccc(CNCc4cn[nH]n4)cc3)c(F)c2)C(=O)O1 (stereo unspecified) | inactive | inactive |
| CCCn1nnc(NC(=O)COc2ccc(C3CCCCC3)cc2)n1 | inactive | inactive |
| CC(C)(C)n1nc(-c2ccccc2)c2c(N)ncnc21 | inactive | inactive |
| CCS(=O)(=O)N(Cc1ccco1)Cc1cc2ccc(C)cc2nc1O | inactive | inactive |
| CC(=O)N1CCc2cc3nc(C)cc(C)c3cc21 | inactive | inactive |
| C[C@H](c1ccc2c(c1)CCCC2)N(C)c1ncc2c(N)nc(N)nc2n1 | inactive | inactive |
| CC(C)/N=c1\cc2n(-c3ccc(Cl)cc3)c3ccccc3nc-2cc1Nc1ccc(Cl)cc1 | inactive | inactive |
| CCc1nc2ccc(Cl)cn2c1C(=O)NCc1ccc(N2CCC(c3ccc(OC(F)(F)F)cc3)CC2)cc1 | inactive | inactive |
| Nc1nccc2ccc(Oc3ccncc3)cc12 | inactive | inactive |
| CCOC(=O)NC(=O)c1ccsc1NC(=O)c1nc2ccccc2s1 | inactive | inactive |
| Cc1ccc(-c2cc(C(=O)Nc3cccnc3)c3cc(Br)ccc3n2)cc1 | inactive | inactive |
| COc1ccc(Oc2ccc([C@@H](C)N(C)c3ncc4c(N)nc(N)nc4n3)cc2)cc1 | inactive | inactive |
| N=C(N)c1ccc(-c2cc(-c3ccccc3)on2)cc1 | inactive | inactive |
| O=S(=O)(c1ccc(Cl)cc1)N1CCN(C(=S)NCc2ccco2)CC1 | inactive | inactive |
